# Reference: PubChem BioAssay (NCI)
#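 Following 48 hours of exposure in 96-well plates, responses at five concentrations were used to interpolate endpoints linearly. Abbreviation: GI50, concentration required for 50% inhibition of growth. TGI: concentration producing complete growth inhibition.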
# Tests used:
# Assay in all cases: NCI-60 cell line screen, 48 h
# ACHN renal = tested on: ACHN renal
# CAKI-1 renal = tested on: CAKI-1 renal
# COLO 205 colon = tested on: COLO 205 colon
# HCC-2998 colon = tested on: HCC-2998 colon
# M14 melanoma = tested on: M14 melanoma
# MCF7 breast = tested on: MCF7 breast
# MDA-MB-435 = tested on: MDA-MB-435
# MOLT-4 leukemia = tested on: MOLT-4 leukemia
# SK-MEL-28 melanoma = tested on: SK-MEL-28 melanoma
# U251 CNS = tested on: U251 CNS
Structure (SMILES),GI50 (ACHN renal),TGI (ACHN renal),GI50 (CAKI-1 renal),TGI (CAKI-1 renal),GI50 (COLO 205 colon),TGI (COLO 205 colon),GI50 (HCC-2998 colon),TGI (HCC-2998 colon),GI50 (M14 melanoma),TGI (M14 melanoma),GI50 (MCF7 breast),TGI (MCF7 breast),GI50 (MDA-MB-435),TGI (MDA-MB-435),GI50 (MOLT-4 leukemia),TGI (MOLT-4 leukemia),GI50 (SK-MEL-28 melanoma),TGI (SK-MEL-28 melanoma),GI50 (U251 CNS),TGI (U251 CNS)
CN(C(=O)c1ccc(F)cc1C(F)(F)F)C1CCN(c2nnc(-c3ccnn3C)c3ccccc23)CC1,51.7 µM,> 100 µM,31.9 µM,> 100 µM,32.9 µM,> 100 µM,> 93.3 µM,> 100 µM,46.7 µM,> 100 µM,24.2 µM,> 100 µM,26.6 µM,> 100 µM,23.2 µM,68.8 µM,> 65.6 µM,> 100 µM,59.3 µM,> 100 µM
COc1cc(-c2c3c(cn2S(=O)(=O)c2ccccc2)-c2nc(N)sc2CC3)cc(OC)c1OC,0.797 µM,31.1 µM,0.724 µM,36.6 µM,1.14 µM,3.53 µM,4.81 µM,> 100 µM,0.612 µM,> 100 µM,0.381 µM,21.4 µM,0.238 µM,0.791 µM,0.701 µM,43.1 µM,1.12 µM,29.8 µM,0.591 µM,10.5 µM
COc1ccc(C(CC(=O)c2ccccc2)C(C(=O)c2ccccc2)C(c2ccc(OC)cc2)C2C(=O)NC(=O)NC2=O)cc1 (stereo not given),17.9 µM,> 100 µM,2.85 µM,20.3 µM,3.43 µM,19.1 µM,6.83 µM,28.5 µM,19.8 µM,60.8 µM,18.7 µM,> 100 µM,19.6 µM,> 100 µM,60.7 µM,> 100 µM,23.7 µM,> 100 µM,10.7 µM,51.3 µM
CC1=CC[C@@H]2[C@@H](CC[C@@]2(C)O)C(C)(C)[C@H]1CC[C@@H]1[C@@]2(C)CCC(=O)C(C)(C)O[C@@H]2CC[C@]1(C)O,–,42.4 µM,–,96.6 µM,–,55.8 µM,–,40.9 µM,–,59.3 µM,–,> 100 µM,–,> 100 µM,–,68.5 µM,–,> 100 µM,–,> 100 µM
CCCC[C@@H]1NC(=O)[C@H](CCCCN)NC(=O)[C@H](CCCNC(=N)N)NC(=O)[C@H](CC(C)C)NC(=O)[C@@H](NC(=O)[C@H](Cc2cccc(Cl)c2)NC(=O)[C@@H]2CCCN2C(=O)[C@@H](NC(C)=O)C(C)C)CCSSC[C@@H](C(=O)N[C@@H](CCCCN)C(=O)N2CCC[C@H]2C(=O)N2CCC[C@H]2C(=O)N[C@@H](CCC(=O)O)C(N)=O)NC(=O)[C@H](Cc2ccccc2)NC(=O)[C@H](CO)NC(=O)[C@H](C)NC(=O)[C@@H]2CCCN2C1=O,> 50 µM,> 50 µM,> 50 µM,> 50 µM,> 50 µM,> 50 µM,> 50 µM,> 50 µM,> 50 µM,> 50 µM,> 50 µM,> 50 µM,> 50 µM,> 50 µM,> 50 µM,> 50 µM,> 50 µM,> 50 µM,> 50 µM,> 50 µM
CC1(C)CCC(S(=O)(=O)c2ccc3c(c2)/C(=N\O)c2cc(S(=O)(=O)N4CCC(O)(c5cccc(C(F)(F)F)c5)CC4)ccc2-3)CC1,0.0431 µM,1.41 µM,0.0752 µM,1.14 µM,0.0208 µM,0.0455 µM,0.0237 µM,0.0545 µM,0.019 µM,0.0375 µM,0.0206 µM,0.0485 µM,0.0283 µM,0.122 µM,0.0199 µM,0.0444 µM,0.0505 µM,0.446 µM,0.02 µM,0.0384 µM
